Experimental data published in patent EP0700399B1, “36-DERIVATIVES OF RIFAMYCINS AND THEIR USE AS ANTIMICROBIAL AGENTS” (GRUPPO LEPETIT S.P.A., priority 1993, dated 1994).
Read-outs that look alike come from different tables or passages of the source.

Assays:
Experiment in all cases: MIC by broth microdilution
[1] = test system: Esch. coli K12 rifa-r^(1); type: cell-based, Escherichia coli; conditions: Escherichia coli, read-out: MIC of the compounds
[2] = test system: Proteus vulgaris ATCC 881; type: cell-based; conditions: Proteus vulgaris, ATCC881; internal code L79; read-out: MIC of the compounds
[3] = test system: Bacteroides fragilis ATCC 23745; type: cell-based; conditions: Bacteroides fragilis, ATCC23745; internal code L1010; anaerobic, 48 hours; read-out: MIC of the compounds
[4] = test system: Staph. epidermidis ATCC 12228; type: cell-based; conditions: Staphylococcus epidermidis, ATCC12228; internal code L147; read-out: MIC of the compounds
[5] = test system: Propionibact. acnes ATCC 6919; type: cell-based, Propionibacterium acnes; conditions: Cutibacterium acnes, ATCC6919; internal code L1014; anaerobic, 48 hours; read-out: MIC of the compounds
Streptococcus pyogenes = type: cell-based; conditions: Streptococcus pyogenes; internal code L49; read-out: MIC of the compounds
Escherichia coli = type: cell-based; conditions: Escherichia coli; internal code L47; read-out: MIC of the compounds
[6] = test system: Enterococc. faecalis ATCC 7080; type: cell-based, Enterococcus faecalis; conditions: Enterococcus faecalis, ATCC7080; internal code L149; read-out: MIC of the compounds
Staph. aureus rifa-r^(2) = type: cell-based; conditions: Staphylococcus aureus, read-out: MIC of the compounds
Strept. pneumoniae = type: cell-based; conditions: Streptococcus pneumoniae; internal code L44; read-out: MIC of the compounds
[7] = test system: Staph. haemolyticus rifa-r^(2); type: cell-based; conditions: Staphylococcus haemolyticus, read-out: MIC of the compounds
Esch. coli K12 wild type = type: cell-based; conditions: Escherichia coli, K12WILDTYPE, internal code G210, read-out: MIC of the compounds
Neisseria gonorrhoeae = type: cell-based; conditions: Neisseria gonorrhoeae; internal code L997; 5% carbon dioxide, 48 hours; read-out: MIC of the compounds
[8] = test system: Pseudomonas aerug. ATCC10145; type: cell-based, Pseudomonas aeruginosa; conditions: Pseudomonas, ATCC10145; internal code L4; read-out: MIC of the compounds
[9] = test system: Esch. coli K12 hyperpermeable; type: cell-based, Escherichia coli; conditions: Escherichia coli, read-out: MIC of the compounds
[10] = test system: Haemoph. influenzae ATCC 19418; type: cell-based, Haemophilus influenzae; conditions: Haemophilus influenzae, ATCC19418; internal code L970; 5% carbon dioxide, 48 hours; read-out: MIC of the compounds
Staphylococcus aureus = type: cell-based; conditions: Staphylococcus aureus; internal code L165; read-out: MIC of the compounds

`CO[C@H]1/C=C/O[C@@]2(C)Oc3c(C)c(O)c4c(c3C2=O)C(=O)C=C(NC(=O)/C(C)=C\C=C\[C@H](C)[C@H](O)[C@@H](C)[C@@H](O)[C@@H](C)[C@H](OC(=O)CF)[C@@H]1C)C4=O` [Compound C2, 36-Fluororifamycin S] showed an MIC ([1]; internal code G1064, rifampicin resistant strain, moderately resistant) of over 128 µg/mL, an MIC [2] of 32 µg/mL and an MIC [3] of 2 µg/mL. For the same compound, the MIC [4] was 0.015 µg/mL, the MIC [5] was 0.13 µg/mL and the MIC (Streptococcus pyogenes) was 0.008 µg/mL. For the same compound, the MIC (Escherichia coli) was 128 µg/mL, the MIC [6] was 1 µg/mL and the MIC (Staph. aureus rifa-r^(2); internal code L1282, rifampicin resistant strain, highly resistant) was 64 µg/mL. For the same compound, the MIC (Strept. pneumoniae) was 0.015 µg/mL, the MIC ([7]; internal code L602, rifampicin resistant strain, highly resistant) was at least 128 µg/mL and the MIC (Esch. coli K12 wild type) was at least 128 µg/mL. For the same compound, the MIC (Neisseria gonorrhoeae) was 2 µg/mL, the MIC [8] was 64 µg/mL and the MIC ([9]; internal code G1640, hyperpermeable) was 1 µg/mL. For the same compound, the MIC [10] was 2 µg/mL and the MIC (Staphylococcus aureus) was 0.015 µg/mL.
With `CO[C@H]1/C=C/O[C@@]2(C)Oc3c(C)c(O)c4c(c3C2=O)C(=O)C=C(NC(=O)/C(C)=C\C=C\[C@H](C)[C@H](O)[C@@H](C)[C@@H](O)[C@@H](C)[C@H](OC(=O)CSC)[C@@H]1C)C4=O` [Compound C4, 36-Methylthiorifamycin S] the MIC [1] was over 128 µg/mL, the MIC [2] was 8 µg/mL and the MIC [3] was 0.5 µg/mL. It also gave an MIC [4] of 0.001 µg/mL, an MIC [5] of 0.06 µg/mL and an MIC (Streptococcus pyogenes) of 0.008 µg/mL. It also gave an MIC (Escherichia coli) of 64 µg/mL, an MIC [6] of 0.5 µg/mL and an MIC (Staph. aureus rifa-r^(2)) of 32 µg/mL. For the same compound, the MIC (Strept. pneumoniae) was 0.002 µg/mL, the MIC [7] was 128 µg/mL and the MIC (Esch. coli K12 wild type) was 64 µg/mL. For the same compound, the MIC (Neisseria gonorrhoeae) was 0.5 µg/mL, the MIC [8] was 32 µg/mL and the MIC [9] was 0.51 µg/mL. For the same compound, the MIC [10] was 1 µg/mL and the MIC (Staphylococcus aureus) was 0.008 µg/mL.
With `CO[C@H]1/C=C/O[C@@]2(C)Oc3c(C)c(O)c4c(c3C2=O)C(=O)C=C(NC(=O)/C(C)=C\C=C\[C@H](C)[C@H](O)[C@@H](C)[C@@H](O)[C@@H](C)[C@H](OC(=O)CI)[C@@H]1C)C4=O` [Compound C10, 36-Iodorifamycin S] the MIC [1] was at least 128 µg/mL, the MIC [2] was 32 µg/mL and the MIC [3] was 0.5 µg/mL. It also gave an MIC [4] of 0.06 µg/mL, an MIC [5] of 0.13 µg/mL and an MIC (Streptococcus pyogenes) of 0.015 µg/mL. It also gave an MIC (Escherichia coli) of 64 µg/mL, an MIC [6] of 2 µg/mL and an MIC (Staph. aureus rifa-r^(2)) of 32 µg/mL. It also gave an MIC (Strept. pneumoniae) of 0.03 µg/mL, an MIC [7] of 64 µg/mL and an MIC (Esch. coli K12 wild type) of 128 µg/mL. For the same compound, the MIC (Neisseria gonorrhoeae) was 16 µg/mL, the MIC [8] was 32 µg/mL and the MIC [9] was 1 µg/mL. It also gave an MIC [10] of 4 µg/mL and an MIC (Staphylococcus aureus) of 0.06 µg/mL.
`CCN(CC)CC(=O)O[C@H]1[C@H](C)[C@H](O)[C@H](C)[C@@H](O)[C@@H](C)/C=C/C=C(/C)C(=O)NC2=CC(=O)c3c(c(O)c(C)c4c3C(=O)[C@@](C)(O/C=C/[C@H](OC)[C@H]1C)O4)C2=O` [Compound C12, 36-Diethylaminorifamycin S] gave an MIC [1] of over 128 µg/mL, an MIC [2] of 8 µg/mL and an MIC [3] of 2 µg/mL. For the same compound, the MIC [4] was 0.008 µg/mL, the MIC [5] was 0.5 µg/mL and the MIC (Streptococcus pyogenes) was 0.06 µg/mL. The MIC (Escherichia coli) was 32 µg/mL, the MIC [6] was 0.25 µg/mL and the MIC (Staph. aureus rifa-r^(2)) was 32 µg/mL. It also gave an MIC (Strept. pneumoniae) of 0.03 µg/mL, an MIC [7] of 64 µg/mL and an MIC (Esch. coli K12 wild type) of 64 µg/mL. For the same compound, the MIC (Neisseria gonorrhoeae) was 1 µg/mL, the MIC [8] was 32 µg/mL and the MIC [9] was at most 0.13 µg/mL. The MIC [10] was 1 µg/mL and the MIC (Staphylococcus aureus) was 0.03 µg/mL.
